Assay results published in patent publication US20240269106A1, “SMALL MOLECULE MODULATOR TARGETING A RARE HISTONE MODIFICATION REGULATING ADIPOGENESIS AND PHARMACEUTICAL FORMULATION THEREOF” (COUNCIL OF SCIENTIFIC AND INDUSTRIAL RESEARCH AN INDIAN …, priority 2021, published 2024).

Columns and labels:
[1] = tested on: histone butyrylation and acetylation in liver and adipose tissue; test: Histone modifications in liver and adipose tissue of high fat diet mice; format: in vivo
Experimental: Collected liver tissue samples were stored in 4% paraformaldehyde for 24 hours after which they were cryoprotected in 30% sucrose solution for two weeks. Cryosections were performed at 7 μm sections using Cryostat Leica CM1850 UV. For staining, the tissue sections were washed with PBS followed by antigen retrieval with 0.01 M citrate buffer (pH 6). The tissues were then permeabilised with 0.3% Triton X-100/PBS (PBST) and blocked with 2% serum followed by incubation with primary antibodies overnight at 4° C. The next day, secondary antibody incubation was carried out for one hour at room temperature followed by staining of the nuclei with Hoechst 33342 and mounting with 70% glycerol. Images were acquired by confocal microscopy. For quantitation, intensity of each modification specific staining was normalized with respect to the Hoechst staining intensity.
It was observed that H4K5 butyrylation in liver increased upon high fat diet consumption but was inhibited in presence of compound of Formula I (FIG. 10A). […] Acid extraction of histones was performed from the epididymal fat pads of mice using the same protocol as mentioned in example 7. It was observed that H4K5 butyrylation was reduced in the adipocytes of high fat diet fed mice treated with compound of Formula I compared to mice fed with high fat diet only (FIG. 10B).

[2] = Detection of compound in mice liver by Q-TOF LC/MS; format: in vivo; conditions: LC-ESI-MS of liver metabolites
Experimental: The liver samples of mice treated with compound I were homogenized in a solution consisting of 50% methanol and 50% water and then snap frozen in liquid nitrogen followed by lyophilization. Profiling of intracellular metabolites was performed on an agilent 1290 Infinity LC system coupled to Agilent 6545 Accurate Mass Quadrupole Time of Flight (QTOF) with Agilent Jet Stream Thermal Gradient Technology. The UPLC system was assembled with a Diode array detector (DAD) and autosampler. The Chromatographic separation was achieved on Agilent ZORBAX SB-C18 column (2.1×100 mm, 1.8 μm) as stationary phase. […]
The ESI spectra of pure solution of compound of Formula I was taken as reference (FIG. 14A). When LC-ESI-MS analysis of metabolites of compound treated mice, liver was performed, the corresponding protonated molecular ion species was detected in the ESI spectra (FIG. 14B).

full length p300 = target: T1, full length p300 (Homo sapiens, UniProt Q09472); test: In vitro p300 acetylation assay (immunoblot); format: biochemical; conditions: same range of concentration (10, 15, 20 and 25 μM)
T1 construct: Purified full length p300 protein was used for in vitro acetylation/butyrylation assay
T1 sequence (Q09472 whole entry, species assumed): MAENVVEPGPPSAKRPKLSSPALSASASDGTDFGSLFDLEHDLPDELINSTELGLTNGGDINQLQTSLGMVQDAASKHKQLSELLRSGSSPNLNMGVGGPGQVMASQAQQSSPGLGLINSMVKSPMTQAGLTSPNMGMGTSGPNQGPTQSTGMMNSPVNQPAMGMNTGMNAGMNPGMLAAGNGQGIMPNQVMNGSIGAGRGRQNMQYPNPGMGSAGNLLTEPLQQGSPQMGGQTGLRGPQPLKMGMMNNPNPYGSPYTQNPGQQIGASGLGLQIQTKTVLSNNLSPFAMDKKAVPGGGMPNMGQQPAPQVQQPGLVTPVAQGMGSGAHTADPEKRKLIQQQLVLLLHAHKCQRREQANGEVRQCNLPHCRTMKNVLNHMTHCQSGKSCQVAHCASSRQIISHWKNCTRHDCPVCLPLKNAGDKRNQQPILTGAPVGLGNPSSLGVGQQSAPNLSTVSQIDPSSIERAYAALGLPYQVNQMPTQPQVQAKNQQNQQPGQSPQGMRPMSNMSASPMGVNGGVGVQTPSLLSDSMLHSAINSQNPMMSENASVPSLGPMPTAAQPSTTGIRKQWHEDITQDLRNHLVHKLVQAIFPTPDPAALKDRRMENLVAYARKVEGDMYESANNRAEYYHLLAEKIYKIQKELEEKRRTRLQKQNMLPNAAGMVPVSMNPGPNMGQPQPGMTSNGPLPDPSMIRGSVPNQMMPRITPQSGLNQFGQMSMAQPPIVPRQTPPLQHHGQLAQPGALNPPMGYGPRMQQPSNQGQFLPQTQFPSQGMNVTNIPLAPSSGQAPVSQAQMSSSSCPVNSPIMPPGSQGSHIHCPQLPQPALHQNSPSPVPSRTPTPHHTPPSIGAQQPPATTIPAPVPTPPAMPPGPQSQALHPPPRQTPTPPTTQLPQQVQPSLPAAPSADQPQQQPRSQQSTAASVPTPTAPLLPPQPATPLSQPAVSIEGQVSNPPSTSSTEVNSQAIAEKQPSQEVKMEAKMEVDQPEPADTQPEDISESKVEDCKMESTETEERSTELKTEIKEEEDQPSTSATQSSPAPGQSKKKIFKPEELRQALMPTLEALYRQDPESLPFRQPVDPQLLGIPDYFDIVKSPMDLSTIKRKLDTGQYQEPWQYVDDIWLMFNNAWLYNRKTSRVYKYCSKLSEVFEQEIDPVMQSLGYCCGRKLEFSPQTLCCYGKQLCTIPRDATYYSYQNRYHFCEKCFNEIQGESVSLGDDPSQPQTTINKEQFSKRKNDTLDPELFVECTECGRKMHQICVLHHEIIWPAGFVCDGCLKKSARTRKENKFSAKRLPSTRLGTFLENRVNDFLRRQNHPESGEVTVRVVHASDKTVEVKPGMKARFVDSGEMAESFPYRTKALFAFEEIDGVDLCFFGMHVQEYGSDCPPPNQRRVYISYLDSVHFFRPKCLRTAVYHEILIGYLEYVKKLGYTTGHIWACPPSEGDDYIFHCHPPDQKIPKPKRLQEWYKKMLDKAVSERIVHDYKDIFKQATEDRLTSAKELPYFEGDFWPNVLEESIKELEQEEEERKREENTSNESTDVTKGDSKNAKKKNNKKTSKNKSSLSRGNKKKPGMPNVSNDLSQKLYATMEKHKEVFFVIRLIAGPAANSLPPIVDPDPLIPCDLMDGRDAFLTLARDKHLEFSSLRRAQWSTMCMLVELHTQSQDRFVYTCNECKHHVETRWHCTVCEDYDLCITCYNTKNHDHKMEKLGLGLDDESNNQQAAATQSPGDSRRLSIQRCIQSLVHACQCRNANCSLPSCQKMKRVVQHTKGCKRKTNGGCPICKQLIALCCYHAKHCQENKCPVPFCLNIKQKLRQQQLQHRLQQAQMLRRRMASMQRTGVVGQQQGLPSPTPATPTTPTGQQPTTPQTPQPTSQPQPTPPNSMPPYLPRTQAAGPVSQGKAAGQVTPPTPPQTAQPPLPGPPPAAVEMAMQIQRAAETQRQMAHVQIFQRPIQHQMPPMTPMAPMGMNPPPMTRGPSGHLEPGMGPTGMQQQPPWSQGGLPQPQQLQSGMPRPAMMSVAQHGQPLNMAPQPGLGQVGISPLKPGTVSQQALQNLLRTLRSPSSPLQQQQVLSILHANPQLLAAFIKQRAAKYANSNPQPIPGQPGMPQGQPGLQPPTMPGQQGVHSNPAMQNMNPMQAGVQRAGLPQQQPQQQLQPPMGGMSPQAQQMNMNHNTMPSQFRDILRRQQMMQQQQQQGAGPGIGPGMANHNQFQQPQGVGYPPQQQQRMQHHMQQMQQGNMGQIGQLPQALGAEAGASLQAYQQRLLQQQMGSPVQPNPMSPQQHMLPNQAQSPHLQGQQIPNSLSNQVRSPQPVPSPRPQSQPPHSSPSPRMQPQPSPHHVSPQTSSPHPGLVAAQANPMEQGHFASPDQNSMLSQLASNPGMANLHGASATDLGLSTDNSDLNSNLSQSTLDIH
Experimental: Purified full length p300 protein was used for in vitro acetylation/butyrylation assay in presence/absence of different compounds. Acylation reactions were performed in reaction buffer (25 mM Tris-HCl PH 7.5, 100 mM NaCl, 0.1 mM EDTA, 1 mM DTT, 10% Glycerol, 1×PIC) with 100 ng/ml TSA, and 50 μM Butyryl-CoA/Acetyl COA. Xenopus histone H3 (500 ng) was used as the substrate and p300 (10,000 cpm activity) was used as the enzyme. Reactions were incubated in presence or absence of small molecule modulators (including compound of Formula I) for 10 minutes at 30° C., followed by initiation of the acetylation/butyrylation reaction by the addition of acetyl/butyryl CoA. After a further 10 minutes, reactions were stopped by addition of Laemmli buffer and samples were used for immunoblotting.
Immunoblotting with antibodies against acetylated H3K18, acetylated H3K9 and pan-butyryl lysine was performed to check for the relative inhibition of acetyl transferase and butyryl transferase activities of full length p300 by garcinol, isogarcinol and its different derivatives including compound of Formula I at different concentrations. FIG. 2i depicts the effect of garcinol, isogarcinol and two of its derivatives LTK-13 and LTK-14 on p300 catalysed acetyltransferase activity. […] FIG. 2ii depicts the effect of LTK-14 on acetylation and butyrylation catalysed by p300. Lane 1, enzyme alone; Lane 2-4, enzyme+LTK-14 at concentrations 500 nM, 2 μM and 10 μM, respectively. LTK-14 could inhibit acetylation at 10 μM concentration while butyrylation was inhibited at 2 μM concentration. FIG. 2iii depicts the effect of compound x on acetylation and butyrylation catalysed by p300. Lane 1, enzyme alone; Lane 2, enzyme+DMSO; Lane 3-6, enzyme+compound x at concentrations 10, 15, 20 and 25 μM, respectively.

3T3L1 cells = test: MTT assay for cytotoxicity testing; format: cell-based; conditions: 25 μM; 2, 4 and 6 days
Experimental: 12500 cells/mL were seeded in presence/absence of compound of Formula I in […] plate and at different intervals of time (2 days, 4 days, 6 days), 1/10th volume of 5 mg/ml MTT solution was added to it followed by incubation at 37° C. for 3 hours. The formed crystals were dissolved in DMSO and spectrometric estimation of colour intensity was done at 570 nm.
MTT assay was performed to check for any possible cellular toxicity effect of compound of Formula I, using 25 μM concentration of the compound on 3T3L1 cells upon incubation for varying lengths of time (2, 4 and 6 days). Comparison was done with cells that were left untreated or treated with DMSO as solvent control (FIG. 3).

COc1ccc(C(=O)C2=C3OC(C)(C)[C@@H](CC=C(C)C)C[C@@]34C[C@@H](CC=C(C)C)C(C)(C)[C@@](CC=C(C)C)(C2=O)C4=O)cc1OC [Compound X]
H4K5 butyrylation in adipocytes ([1]; epididymal fat pads, immunoblot): reduced
H4K5 butyrylation in liver ([1]; immunohistochemistry): inhibited
H4K12 and H3K14 acetylation in liver ([1]; immunohistochemistry): not affected
detection in mice liver (bioavailability) [2]: detected in its intact form
effect on acetylation catalysed by p300 (full length p300): without affecting acetylation
toxic effect (MTT) (3T3L1 cells): No toxic effect
